Test results published in patent US12569508B2, “Antimicrobial compositions and methods of use” (priority 2020, dated 2026).

Key:
[1] = tested on: 6 mm full-thickness wound infected with P. aeruginosa; experiment: Chronic full-thickness wound infection model: macroscopic and microscopic wound healing; type: in vivo, Balb/c mice
Method: Following the same procedure as above, male and female mice were wounded with a 6 mm circular full-thickness wound under anaesthesia and pain relief. […] Treatments were repeated every 24 h for three days and monitored for the bacterial burden and digital photographs. On day six, mice were sacrificed as described above. Digital photographs of the wounds that were taken daily (day zero to six) were used for the macroscopic assessment of healing using ImageJ software. The images were calibrated to a ruler to measure the wounds length, gape and surface area, as previously described (Abbott C A et al., 2013, supra). The microscopic analysis was completed with histology assessments. Following overnight fixation in 4% (v/v) formaldehyde, collected wound halves were routinely processed into paraffin, and 4 μm thick sections were cut using a semi-automated rotary microtome (HistoCore MultiCut, Leica Biosystems, Melbourne, Australia). The sections were stained for haematoxylin and eosin using established protocols (Kopecki, Z., et al., 2009, supra). Following, all sections were imaged via […] slide scanner, Hamamatsu Photonics, Japan) and analysed using NDP.view2 Viewing software (Hamamatsu Photonics, Japan) to microscopically assess the healing via measurement of wound length, gape and percentage of wound re-epithelisation following previously used protocols ([…]., et al., 2021, supra).

PAO1 biofilm on CFBE41o− = experiment: Chronic infection model CFBE41o− and PAO1: bacterial counts; type: cell-based, P. aeruginosa
Method: A chronic infection model was developed which cultures P. aeruginosa biofilm on top of the bronchial CF epithelium cells (CFBE41o−) at an air-liquid interface. It is a biologically relevant, 3D model that resembles the infected lungs of CF patients.
To assess the activity and toxicity or formulations, the CFBE41o− cell line was seeded on Transwell® inserts (0.05×10^6) at the liquid-liquid interface (500 μL apical and 1500 μL basolateral) on day 0. On day 3, the apical side media was removed, and the basolateral side was replaced with 500 μL of media. On day 7, the transepithelial electrical resistance (TEER) was measured through adding 500 μL to the apical chamber of one well and replacing the basolateral side with 1500 μL. The transferred biofilm model, described above, was employed to transfer the PAO1 biofilm on top of the CFBE41o− cell line in the apical compartment of the Transwells® on day 7. After 1 h incubation, the supernatant was removed as the biofilm has settled onto the cells.
Using the Aerogen® Pro (vibrating mesh nebuliser) and nebulisation chamber, the treatments were then nebulised on top of the biofilm and CFBE41o− cell layer. TOB as an unformulated solution or loaded in the MO-LCNPs were dosed at 10 μg, which was equivalent to 100 μL of 3.32 mg/mL for unformulated TOB and 2.50 mg/mL for MO-LCNPs loaded with TOB. The treatments were prepared by diluting the stock solution/LCNPs suspension to the required concentration in KRB buffer. Each time the nebuliser was first rinsed with KRB buffer and the Transwell® to be dosed was transfered to a clean 12 well plate. The treatment was nebulised following a 30 second deposition waiting time. After all treatments were dosed, the Transwells® were replaced to their original well that included fresh MEM media supplemented with 1% arginine (500 μL) and incubated for the required time at 37° C.
At the time points 24 h and 48 h, different read outs were obtained, including bacterial counts, viability of cells and barrier integrity. […] The plates were incubated for 18 h at 30° C. before the colonies of bacteria were counted.

PAO1 biofilm = experiment: In vitro MBEC antibiofilm assay; type: cell-based, P. aeruginosa; settings: 5 μg/mL and 15 μg/mL TOB; 24 h
Method: The pegs on lid of the MBEC Assay® were submerged into the bacterial suspension, with column 12 containing sterile LB broth as a negative control. The plate was incubated at 37° C. on a rotating gyrator for 24 h to form biofilm on the pegs. After 24 h, the peg lid was removed and transferred into another 96-well microtiter plate containing sterile water for 30 seconds before being transferred into a treatment plate. The peg lid in the treatment plate was incubated for 24 h at 37° C. on the rotating gyrator. In the first study, the effect of concentration variation of TOB in MO-LCNPs was determined. […] The respective controls included unloaded formulations MO-LCNP and […] at equivalent concentrations and 0.9% NaCl. […] In the second study, the difference in effect of MO- and […] compared to liposomes containing TOB was determined. […] The final concentration of MO and PHY was 0.25 mg/mL. Liposomes were prepared as described above. In the third study, TOB, AMI and GEN as unformulated solutions and loaded in MO-LCNPs were compared as treatments against PAO1 biofilms in the MBEC Assay®. The concentration of each antibiotic was 6 μg/mL. […] In all four different studies, the treatments were incubated with the PAO1 biofilm grown on the MBEC Assay® on a rotating plate at 37° C. After 24 h incubation, the peg lid was transferred to a fresh plate containing sterilized water to inhibit treatments. […]

Question: With NC[C@H]1O[C@H](O[C@H]2[C@H](O)[C@@H](O[C@H]3O[C@H](CO)[C@@H](O)[C@H](N)[C@H]3O)[C@H](N)C[C@@H]2N)[C@H](N)C[C@@H]1O [unformulated TOB, tobramycin] as the molecule, how does the macroscopic dermal gape ([1]; day five) read?
Answer: 88±11%

Question: And the “macroscopic wound area (of the original wound)” value ([1]; day five, after two doses)?
Answer: 66±13%

Question: And the “dermal gape (histology)” value ([1]; day six)?
Answer: 5.2±0.8 mm

Question: And the macroscopic dermal gape ([1]; day six)?
Answer: 77±10%

Question: And the “macroscopic wound area (of the original wound)” value ([1]; day six, after three doses)?
Answer: 75±18%

Question: What about the “wound length (histology)” value ([1]; day six, after three doses) of the same molecule?
Answer: 7.6±0.9 mm

Question: And the wound reepithelization ([1]; day six, histology)?
Answer: 41±8%

Question: And the P. aeruginosa remaining (PAO1 biofilm on CFBE41o−; 24 h after nebulisation, biofilm of 4×10^8 CFU/mL)?
Answer: 7.4×10^3 CFU/mL

Question: What about the P. aeruginosa remaining (PAO1 biofilm on CFBE41o−; 48 h, one nebulised dose) of the same molecule?
Answer: 1.2×10^3 CFU/mL

Question: What about the P. aeruginosa remaining (PAO1 biofilm on CFBE41o−; 48 h, two nebulised doses) of the same molecule?
Answer: 5.4×10^1 CFU/mL

Question: And the “reduction of PAO1 load compared to the no treatment control” value (PAO1 biofilm)?
Answer: 2 log
